According to publication PMC7995547, “ω‐Imidazolyl‐alkyl derivatives as new preclinical drug candidates for treating non‐alcoholic steatohepatitis” (Physiological Reports, 2021):
Entries after “also recorded” stand apart in the source; their conditions may differ.

Tested on: male CD/Crl:CD(SD) rats
Test: Acute toxicity study, single peroral application, 14‐day observation
Format: in vivo
Conditions: for Ataxia / Chromodacryorrhea / Dyspnoea / Inhibition of body weight gain / Mean body weight gain, After 7 d / Mean body weight, After 7 d / Mortality within 6 h / Mortality within 24 h / Necropsy findings / Piloerection / Ptosis / Reduced motility / Reduced muscle tone / Mean body weight gain, End / Mean body weight, End / Mean body weight, Start / Mortality within 7 d / Mortality within 14 d: p.o., males, n = 5; for Mean body weight gain, End / Mean body weight, End: 14‐day observation; for Mean body weight, Start: before administration; for Premature deaths in the acute toxicity study: rat, in vivo
Experimental: In total, 90 male CD®/Crl:CD(SD) rats from Charles River Laboratories, Deutschland GmbH, were used after randomization. Five rats were selected for each concentration of the corresponding experimental substance. […] In addition, a control group was formed with five rats receiving only the HPMC gel.
Feeding was stopped approximately 16 h before the start of test substance application, whereas tap water continued to be available ad libitum. Granulated structural wood was used as bedding material in the cages; the material was changed and the cages were cleaned twice a week. […] The rooms were illuminated (approximately 150 lux from a ceiling height of approximately 1.50 m) and darkened for 12 h in turns.
Each animal was kept under observation, so that any behavior deviating from the norm could be systematically recorded. Observations were made before the peroral application of the respective active substance, immediately after, and 5, 15, 30, and 60 min and 3, 6, and 24 h after the start of application. […] We focused on the changes in the skin and fur, the eyes and mucous membranes, respiration, circulation, the autonomous and central nervous systems, somatomotor activity, and behavior patterns. They were also observed for possible tremors, convulsions, salivation, diarrhea, lethargy, sleep, and coma. Mortality checks were performed at least once a day to minimize the loss of animals during the study. The time of death was recorded as accurately as possible. Individual body weights were recorded before the administration of experimental substances and, subsequently, at weekly intervals, until the end of the study and at death. Weight changes were calculated when survival exceeded 1 day.
At the end of the experiments, all surviving animals were sacrificed, dissected, and examined macroscopically. All notable pathological changes were recorded. A microscopic examination of all organs showing obvious lesions was performed on animals that survived for 24 h or longer. Autopsy and macroscopic inspection of prematurely deceased animals were performed as soon as possible after death.

OCCCCCCCCCCCCn1ccnc1 [I‐ol, 12‐imidazolyl‐1‐dodecanol]
Ataxia (10 mg/kg b.w.): None
Chromodacryorrhea (10 mg/kg b.w.): None
Dyspnoea (10 mg/kg b.w.): None
Inhibition of body weight gain (10 mg/kg b.w.): None
Mean body weight gain, After 7 d (10 mg/kg b.w.): +17.0%
Mean body weight, After 7 d (10 mg/kg b.w.): 259.2 g
Mortality within 6 h (10 mg/kg b.w.): 0
Mortality within 24 h (10 mg/kg b.w.): 0
Necropsy findings (10 mg/kg b.w.): None
Piloerection (10 mg/kg b.w.): None
Ptosis (10 mg/kg b.w.): None
Reduced motility (10 mg/kg b.w.): None
Reduced muscle tone (10 mg/kg b.w.): None
Mean body weight gain, End (10 mg/kg b.w.): +30.0%
Mean body weight, End (10 mg/kg b.w.): 288.0 g
Mean body weight, Start (10 mg/kg b.w.): 221.6 g
Mortality within 7 d (10 mg/kg bw): 0
Mortality within 14 d (10 mg/kg bw): 0
Ataxia (50 mg/kg b.w.): None
Chromodacryorrhea (50 mg/kg b.w.): None
Dyspnoea (50 mg/kg b.w.): None
Inhibition of body weight gain (50 mg/kg b.w.): None
Mean body weight gain, After 7 d (50 mg/kg b.w.): +22.2%
Mean body weight, After 7 d (50 mg/kg b.w.): 278.4 g
Mortality within 6 h (50 mg/kg b.w.): 0
Mortality within 24 h (50 mg/kg b.w.): 0
Necropsy findings (50 mg/kg b.w.): None
Piloerection (50 mg/kg b.w.): None
Ptosis (50 mg/kg b.w.): None
Reduced motility (50 mg/kg b.w.): None
Reduced muscle tone (50 mg/kg b.w.): None
Mean body weight gain, End (50 mg/kg b.w.): +36.3%
Mean body weight, End (50 mg/kg b.w.): 310.4 g
Mean body weight, Start (50 mg/kg b.w.): 227.8 g
Mortality within 7 d (50 mg/kg bw): 0
Mortality within 14 d (50 mg/kg bw): 0
Ataxia (100 mg/kg b.w.): None
Chromodacryorrhea (100 mg/kg b.w.): None
Dyspnoea (100 mg/kg b.w.): None
Inhibition of body weight gain (100 mg/kg b.w.): None
Mean body weight gain, After 7 d (100 mg/kg b.w.): +18.5%
Mean body weight, After 7 d (100 mg/kg b.w.): 272.6 g
Mortality within 6 h (100 mg/kg b.w.): 0
Mortality within 24 h (100 mg/kg b.w.): 0
Necropsy findings (100 mg/kg b.w.): None
Piloerection (100 mg/kg b.w.): None
Ptosis (100 mg/kg b.w.): None
Reduced motility (100 mg/kg b.w.): None
Reduced muscle tone (100 mg/kg b.w.): None
Mean body weight gain, End (100 mg/kg b.w.): +33.0%
Mean body weight, End (100 mg/kg b.w.): 305.8 g
Mean body weight, Start (100 mg/kg b.w.): 230.0 g
Mortality within 7 d (100 mg/kg bw): 0
Mortality within 14 d (100 mg/kg bw): 0
Ataxia (250 mg/kg b.w.): None
Chromodacryorrhea (250 mg/kg b.w.): None
Dyspnoea (250 mg/kg b.w.): None
Inhibition of body weight gain (250 mg/kg b.w.): None
Mean body weight gain, After 7 d (250 mg/kg b.w.): +19.6%
Mean body weight, After 7 d (250 mg/kg b.w.): 266.8 g
Mortality within 6 h (250 mg/kg b.w.): 0
Mortality within 24 h (250 mg/kg b.w.): 0
Necropsy findings (250 mg/kg b.w.): None
Piloerection (250 mg/kg b.w.): None
Ptosis (250 mg/kg b.w.): None
Reduced motility (250 mg/kg b.w.): None
Reduced muscle tone (250 mg/kg b.w.): None
Mean body weight gain, End (250 mg/kg b.w.): +34.2%
Mean body weight, End (250 mg/kg b.w.): 299.2 g
Mean body weight, Start (250 mg/kg b.w.): 223.0 g
Toxic signs (250 mg/kg bw): None
Mortality within 7 d (250 mg/kg bw): 0
Mortality within 14 d (250 mg/kg bw): 0
Ataxia (500 mg/kg b.w.): None
Chromodacryorrhea (500 mg/kg b.w.): None +
Dyspnoea (500 mg/kg b.w.): None
Inhibition of body weight gain (500 mg/kg b.w.): None
Mean body weight gain, After 7 d (500 mg/kg b.w.): +29.0%
Mean body weight, After 7 d (500 mg/kg b.w.): 294.2 g
Mortality within 6 h (500 mg/kg b.w.): 0
Mortality within 24 h (500 mg/kg b.w.): 0
Necropsy findings (500 mg/kg b.w.): None
Ptosis (500 mg/kg b.w.): None
Reduced motility (500 mg/kg b.w.): None
Reduced muscle tone (500 mg/kg b.w.): None
Mean body weight gain, End (500 mg/kg b.w.): +46.6%
Mean body weight, End (500 mg/kg b.w.): 334.2 g
Mean body weight, Start (500 mg/kg b.w.): 228.0 g
Toxic signs (500 mg/kg bw): None
Mortality within 7 d (500 mg/kg bw): 0
Mortality within 14 d (500 mg/kg bw): 0
Chromodacryorrhea (1000 mg/kg b.w.): None
Inhibition of body weight gain (1000 mg/kg b.w.): None
Mean body weight gain, After 7 d (1000 mg/kg b.w.): +22.4%
Mean body weight, After 7 d (1000 mg/kg b.w.): 271.2 g
Mortality within 6 h (1000 mg/kg b.w.): 0
Mortality within 24 h (1000 mg/kg b.w.): 0
Necropsy findings (1000 mg/kg b.w.): None
Piloerection (1000 mg/kg b.w.): None
Ptosis (1000 mg/kg b.w.): None
Mean body weight gain, End (1000 mg/kg b.w.): +36.6%
Mean body weight, End (1000 mg/kg b.w.): 302.6 g
Mean body weight, Start (1000 mg/kg b.w.): 221.6 g
Toxic signs (1000 mg/kg bw): reduced motility was observed, with reduced muscle tone, ataxia, and dyspnea; also recorded: Reduced motility and muscle tone, ataxia, dyspnoea
Mortality within 7 d (1000 mg/kg bw): 0
Mortality within 14 d (1000 mg/kg bw): 0
Macroscopic necropsy findings (all doses): None
Premature deaths in the acute toxicity study (male, CD/Crl:CD(SD), 14 days): None of the 30 rats died
Premature deaths in the acute toxicity study: did not lead to any death
Dose up to which no acute toxicity was shown (rats, single p.o. dose): 1000 mg/kg b.w.
Lowest lethal dose (rats, single p.o. dose): >1000 mg/kg bw
No Observed Adverse Effect Level (rats, single p.o. dose): 500 mg/kg bw
LD50(14 d) (rats, single p.o. dose, 14 days): >1000 mg/kg bw
